pIC50: −log10 of the molar value. Like-named read-outs stand apart in the source and are kept apart here.
How the values were obtained:
MCF-7 cells = test: Quantification of F-2,6-P2 in MCF-7 cells; format: cell-based; conditions: Homo sapiens
Text: (§1) The relative kinase (formation) and phosphatase (degradation) activities of the bi-functional enzymes PFKFB3 and PFKFB4 control the intracellular levels of the regulator F-2,6-P2, which acts as an allosteric activator of glycolysis. The levels of F-2,6-P2 have been determined in three different cancer cell lines (MCF-7, PANC-1 and NUGC-3) using the van Shaftingen assay. The assay protocols described under “Methods for measurement of enzymatic activity of PFKFB3 and PFKFB4, Method A” have been adapted for the measurement of the inhibitory effect of compounds on the kinase activity of the various isoforms of the bifunctional enzyme (endogenously expressed) in the different cell lines. The modifications are described in the protocol below. All reagents were purchased from commercial sources or prepared inhouse.
Cell Line A (MCF-7, Human Breast Adenocarcinoma Cell Line)
• Cells: MCF-7(ATCC-HBT22). Lot. no: 58469417. • Growth Medium: • Eagle's Minimum Essential Medium (EMEM), Sigma-Aldrich #M5650, 500 ml • 10% FBS, Invitrogen, 10106-169 • 5 mL 200 mM L-glutamine, Invitrogen 25030024 • 5 mL 100 mM Sodium Pyruvate, Invitrogen 11360039 • 0.5 mL 10 mg/ml Bovine Insulin, Sigma-Aldrich 10516 […]
The amount of F-2,6-P2 was quantified based on the coupled enzymatic reaction described by Van Schaftingen. If necessary the samples were further diluted in 20 mM NaOH before quantification. […]

PFKFB3 = PFKFB3 (Homo sapiens (Human), UniProt Q16875); test: PFKFB3 kinase activity, Method B (ADP-Glo Kinase Assay); format: biochemical
Text: The PFKFB3 (placenta form) and PFKFB4 were produced and purified to homogeneity from E. coli at Biovitrum and at Sprint Bioscience. All other reagents were purchased from commercial sources. Two independent methods have been used for determination of the kinase activity of PFKFB3 (Method A and Method B). Method B has been used for determination of the kinase activity of PFKFB4.
Method B: The kinase activity of the bi-functional enzyme is readily quantified based on the production of ADP and F-2,6-P2 from ATP and F6P. The ADP is detected with a kit, ADP-Glo™ Kinase Assay^(a-e), from Promega. The assay is a luminescent ADP detection assay that measures kinase activity by quantifying the amount of ADP produced during the kinase reaction. The assay is performed in two steps; first, after the kinase reaction, an equal volume of ADP-Glo™ Reagent is added to terminate the kinase reaction and deplete the remaining ATP. Second, the Kinase Detection Reagent is added to simultaneously convert ADP to ATP and allow the newly synthesized ATP to be measured using a luciferase/luciferine reaction. The light generated is measured using a luminescence counter (1450 MicroBeta TriLux).
The assay was performed in white 384-well microtiter plates (OptiPlate, 6007299, PerkinElmer) by consecutive additions of 0.1 μL of a test compound solution (serial diluted in DMSO from compound DMSO stock solution and dispensed by acoustic dispensing from UV-star 384-well plate 7360153, VWR), 5 μL of enzyme solution and 5 μL of a substrate (fructose-6-phosphate (F6P) and adenosine-5′-triphosphate (ATP)) containing solution. […] Four reference dose response curves, one of them being the QC compound, were included in row O1-2, P1-2, and serial diluted as the test compounds. The final concentrations of all reagents in a total assay volume of 10.1 μL per well were: • 50 mM Tris-HCl at pH 8.0 • 10 mM MgCl2 • 5 mM Na2HPO4 at pH 8.0 • 81.48 nM PFKFB3 or 145 nM PFKFB4 • 8 μM ATP • 100 μM F6P (acid treated and then neutralized to remove any contaminating F-2,6-P2; see Van Schaftingen, 1984) • 0.005% Tween-20 • 1 mM dithiothreitol (DTT) • A test compound at various concentrations or controls (final DMSO concentration 0.99%)
Enzyme, compounds and controls were pre-incubated at room temperature for 15 min before the addition of substrate solution. The enzymatic reaction was allowed to proceed for 20 min (PFKFB3) or 40 min (PFKFB4) at room temperature. The reaction was terminated by the addition of 10 μL of ADP-Glo™ Reagent to all wells and the plate was incubated for 40 min at room temperature. After addition of 20 μL Kinase Detection Reagent to all wells the plate was incubated for 30 min at room temperature, followed by measurement in 1450 MicroBeta TriLux. All plates were centrifuged after each addition (room temperature, short spin, 500 RPM, Megafuge 1.0 Heraeus Instruments).
The inhibitory potency or IC50 values of test compounds on the kinase activity of PFKFB3 or PFKFB4 were calculated using a four-parameter model (model 205) in XLfit (IDBS ActivityBase XE Runner).

PANC-1 cells = test: Quantification of F-2,6-P2 in PANC-1 cells; format: cell-based; conditions: Homo sapiens, PANC-1; read-out: IC50 based on quantification of F-2,6-P2
Text: as §1
Cell Line B (PANC-1, Human Pancreatic Carcinoma Cell Line)
• Cells: PANC-1 (ATCC-CRL-1469). Lot. no: 58564651. • Growth medium: Dulbecco's Modified Eagle's Medium, DMEM, ATCC-30-2002 10% FBS, Invitrogen, 10106-169
Cells were seeded at a concentration of 250 000 cells/mL in 100 μL growth medium (25 000 cells/well)
Starvation medium: DMEM/F12 without phenol red and glucose free, SVA, 991373 0.25% FBS, Invitrogen, 10106-169
Induction medium: DMEM/F12 without phenol red and glucose free, SVA, 991373 0.25% FBS, Invitrogen, 10106-169 (same as starvation medium)
Cells were seeded in 96-well Corning Costar tissue culture plates (CLS3595, Sigma-Aldrich) using the concentrations specified above for the three different cell lines A-C and incubated over night at 37° C. and 5% CO2. Row A was left empty. Next day the growth medium was discarded and replaced with 100 μL starvation medium. The plates were incubated for 18 h at 37° C. and 5% CO2. After 18 h of starvation the cells were induced with 100 μL compound or control solutions. Compounds were either tested in two concentrations (50 μM and 10 μM) or in dose response curves starting from 50 μM and the final DMSO concentration in assay plates was 0.5%. Also a dose response curve of a reference inhibitor was included in row H on each plate. All compounds were tested in duplicate plates. Compounds (in 96 well CLS 3365, Sigma-Aldrich) were serial diluted in DMSO from 10 mM compound DMSO stock solutions with Janus (automated liquid handling workstation from PerkinElmer). 5 μL were transferred to a Greiner deep well plate (736-0155, VWR) with 495 μL starvation medium. The final start concentration of compounds in the dilution plate was 100 μM, 1% DMSO. For compounds tested as single points, 10 mM compound solutions were diluted five fold in DMSO to 2 mM, followed by the transfer of 5 μL to separate dilution plates with 495 μL starvation medium. The final concentration of compounds in these dilution plates were 100 or 20 μM, respectively, and final concentration of DMSO was 1%. The plates were incubated at 37° C. and 5% CO2 for 1 h, followed by the addition of 10 μL 20 mM D-glucose in starvation medium. Controls, with and without 1 mM glucose, were included in row B. The final assay volume was 210 μL per well. After 2 h of incubation at 37° C. and 5% CO2, supernatants were discarded and the cells were lysed by the addition of 25 μL 250 mM NaOH. The plates were incubated at 37° C. and 5% CO2 for 5 min followed by an addition of 75 μL MilliQ dH2O. The supernatants were further diluted with 210 μL MilliQ dH2O to a final concentration of 20 mM NaOH. 200 μL were transferred to NUNC 96-well plates (7322661, VWR) and the plates were sealed and stored at −20° C. until analysis.
(§2) The amount of F-2,6-P2 was quantified based on the coupled enzymatic reaction described by Van Schaftingen. If necessary the samples were further diluted in 20 mM NaOH before quantification. Plates stored at −20° C. were thawed and the F-2,6-P2 quantification was initiated by transferring 40 μL from each well of the NUNC plate to the corresponding position in a trans-parent 96-well SpectraPlate-MB (6005649, PerkinElmer). […]

NUGC-3 cells = test: Quantification of F-2,6-P2 in NUGC-3 cells; format: cell-based; conditions: Homo sapiens, read-out: IC50 based on quantification of F-2,6-P2
Text: as §1
Cell Line C (NUGC-3, Human Gastric Cancer Cell Line)
Cells were seeded at a concentration of 350 000 cells/mL in 100 μL growth medium (35 000 cells/well) […]
as §2

[1] = tested on: NUGC3 gastric tumor cell line; test: Inhibition of cancer cell proliferation (Sulphorhodamine B total cellular protein); format: cell-based, human; conditions: added at 0 h and again at 48 h, total of 120 h, FIG. 1
Method: To assess the antiproliferative response elicited by the compounds of the present invention in different tumour cell lines, total cellular protein in samples was quantified using the Sulphorhodamine B kit, TOX6, (Sigma-Aldrich).
Cells from selected tumour cell lines were cultured at 37° C., 5% CO2, normoxia, in DMEM/F12 medium +10% FBS. Cells were plated at a density of 6-12 000 cells/well, depending on cell-line specific size and growth characteristics, and allowed to attach overnight.
Culture media supernatants were then removed and replaced with either fresh medium or with compounds of the present invention diluted in cell culture medium to indicated concentrations, and to a maximal DMSO concentration of 0.1%. All treatments were in quadruplicate. After indicated incubation times, samples were washed with PBS and the total cellular protein in each sample was quantitated after precipitation with TCA according to the manufacturer's instructions. […] After air drying, bound dye was solubilized in 200 μL 10 mM Tris base, and the absorbance of dye was measured at a wavelength of 565 nm. To quantify growth, samples were collected also at t=0 h, and the resulting absorbance was set to 100%.
In brief, the Example 74 was added at the indicated concentrations at 0 h and again at 48 h. After a total of 120 h, the measured effect on cancer cell proliferation was quantified as described above.

PFKFB3, sequence (Q16875 whole entry): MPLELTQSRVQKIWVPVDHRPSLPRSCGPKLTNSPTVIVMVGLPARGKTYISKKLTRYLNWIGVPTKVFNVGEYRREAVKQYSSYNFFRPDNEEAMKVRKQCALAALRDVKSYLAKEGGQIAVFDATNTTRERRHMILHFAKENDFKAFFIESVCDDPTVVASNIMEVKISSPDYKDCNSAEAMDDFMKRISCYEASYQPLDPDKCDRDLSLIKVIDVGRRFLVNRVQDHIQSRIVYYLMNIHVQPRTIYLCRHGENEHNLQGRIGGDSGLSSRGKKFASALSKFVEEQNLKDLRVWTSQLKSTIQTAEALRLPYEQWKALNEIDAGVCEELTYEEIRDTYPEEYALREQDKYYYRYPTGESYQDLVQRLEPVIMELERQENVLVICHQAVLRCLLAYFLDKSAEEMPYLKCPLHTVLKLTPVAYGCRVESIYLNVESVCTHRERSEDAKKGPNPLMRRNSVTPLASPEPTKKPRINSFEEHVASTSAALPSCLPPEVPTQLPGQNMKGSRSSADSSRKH

Row | pIC50 (PFKFB3) | Compound | further results
1 | 6.24 | O=S(=O)(Nc1cccc(-c2nnn[nH]2)c1)c1ccc(Cl)c2nonc12 [Example 73, 7-Chloro-N-[3-(1H-tetrazol-5-yl)phenyl]-2,1,3-benzoxadiazole-4-sulfonamide] | –
2 | 5.55 | O=S(=O)(Nc1cccc(-c2nnn[nH]2)c1)c1ccc(-c2ccc(Cl)c(Cl)c2)cc1 [Example 86, 3′,4′-Dichloro-N-[3-(1H-tetrazol-5-yl)phenyl]biphenyl-4-sulfonamide] | –
3 | 5.62 | O=S(=O)(Nc1cccc(-c2nnn[nH]2)c1)c1cc(Cl)c(Cl)cc1Cl [Example 71, 2,4,5-Trichloro-N-[3-(1H-tetrazol-5-yl)phenyl]benzenesulfonamide] | –

Continued, compound first:

Row | Compound | pIC50 (PFKFB3) | further results
4 | Cc1c(S(=O)(=O)Nc2cccc(-c3cnco3)c2)sc2ccc(Cl)cc12 [Example 141, 5-Chloro-3-methyl-N-[3-(1,3-oxazol-5-yl)phenyl]-1-benzothiophene-2-sulfonamide] | – | pIC50 (MCF-7 cells; MCF7, read-out: IC50 based on quantification of F-2,6-P2): 5.52
5 | O=C(O)c1cccc(NS(=O)(=O)c2cccc(-c3ccccc3)c2)c1 [Example 80, 3-[(Biphenyl-3-ylsulfonyl)amino]benzoic acid] | 5.51 | –
6 | O=S(=O)(Nc1cccc(-c2nnn[nH]2)c1)c1ccc(-c2cccc(C(F)(F)F)c2)s1 [Example 99, N-[3-(1H-Tetrazol-5-yl)phenyl]-5-[3-(trifluoromethyl)phenyl]thiophene-2-sulfonamide] | 5.85 | –
7 | CSc1nccc(-c2ccc(S(=O)(=O)Nc3cccc(C(=O)O)c3)s2)n1 [Example 61, 3-[[5-(2-Methylsulfanylpyrimidin-4-yl)-2-thienyl]sulfonylamino]benzoic acid] | 5.65 | –
8 | COC(=O)c1cccc(NS(=O)(=O)c2sc3ccc(Cl)cc3c2C)c1 [Example 74, Methyl 3-{[(5-chloro-3-methyl-1-benzothien-2-yl)sulfonyl]amino}benzoate] | – | pIC50 (PANC-1 cells): 5.43; pIC50 (NUGC-3 cells): 5.40; effect on cell proliferation [1]: growth-inhibitory effect
9 | Cc1c(S(=O)(=O)Nc2ccc(O)c(C(=O)O)c2)sc2ccc(Cl)cc12 [Example 138, 5-{[(5-Chloro-3-methyl-1-benzothiophen-2-yl)sulfonyl]amino}-2-hydroxybenzoic acid] | 5.04 | –
10 | COC(=O)c1cc(NS(=O)(=O)c2sc3ccc(Cl)cc3c2C)ccc1O [Example 140, Methyl 5-{[(5-chloro-3-methyl-1-benzothiophen-2-yl)sulfonyl]amino}-2-hydroxybenzoate] | – | pIC50 (MCF-7 cells; MCF7, cells seeded in the starvation medium containing 25 mM glucose, 25 000 cells/well, read-out: IC50 based on quantification of F-2,6-P2): 5.92
